Experimental data: US8367835B2, “Cyclic amine-1-carboxylic acid ester derivative and pharmaceutical composition containing the same” (Dainippon Sumitomo Pharma Co., Ltd., priority 2008, dated 2013)
Where two headings read alike, the source gives them in different places.

Experiments:
[1] = system: mechanical hyperalgesia in a neuropathic pain model (rat Chung model); assay: Analgesic effect: von Frey filament test using rat Chung model, transdermal administration; assay type: in vivo; settings: 0.1% formulation applied transdermally to plantar surface of left hindlimb once a day for 2 weeks; measured on the day after last administration; pre-administration value = 100%
Method: The present test is to measure the analgesic effect based on the improvement level of the mechanical hyperalgesia in a neuropathic pain model as the indicator by transdermally administering the compound of the present invention and was carried out in accordance with the method of Kim and Chung [Pain, 50, 355-363 (1992)] or the method of Tsuda et al. [Nature, 424, 778-783, 2003].
Specifically, using Jcl: Wistar male rat (7 to 9 rats/group, 5 weeks of age at the time of surgery), spinal nerves were injured to induce hyperalgesia and the withdrawal threshold was measured using the von Frey filament. In the surgery, under Pentobarbital anesthesia, the left L5 spinal nerve was exposed, ligated near the spinal cord using a silk suture (5-0) and transected just peripheral to the ligation. After suturing the incision and keeping the rats for 2 weeks, the rats were subjected to the von Frey filament test. The measurement of the mechanical hyperalgesia was carried out by applying von Frey filaments (1.0, 2.0, 4.0, 8.0, 15.0 g) to the plantar surface of the left hindlimb, and the filament intensity at which 50% or higher withdrawal behavior was observed was defined as the withdrawal threshold.
After dissolving the test compounds in a mixture of Tween 80 and ethanol, the obtained solution was mixed with a hydrophilic ointment to prepare a formulation having a concentration of 0.1%. The withdrawal threshold before administering the test compound was measured to define the pre-administration value (100%). Thereafter, once a day, for 2 weeks, the formulation having a concentration of 0.1% was transdermally administered (applied) to the plantar surface of the left hindlimb, the von Frey filament test was carried out on the following day of the last administration to measure the post-administration value. Further, the same formulation as above but free of the test compound was prepared as a vehicle control and the same test was carried out.
The analgesic effect is a relative ratio when a test compound pre-administration value calculated using the following numerical formula is 100%. The pre-administration withdrawal threshold was 3.3±0.1 g (119 cases) (the withdrawal threshold of sham-operated rat was 10 to 15 g). %=(test compound post-administration withdrawal threshold value/pre-administration withdrawal threshold value)×100

[2] = system: micronucleus-containing immature erythrocyte; assay: Bone marrow micronucleus test; assay type: in vivo, rat; settings: subcutaneous, twice every 24 hours, Crl: CD male rats; dosage at which fatal cases start occurring and dosages up thereto
Method: Each compound of Examples 2, 16 and 37 dissolved in physiological saline containing ethanol and Tween 80 was subcutaneously administered to Crl: CD male rats twice every 24 hours and micronucleus inducing potential was evaluated.

[3] = target: T1, TRPV1 (Rattus norvegicus, UniProt O35433); assay: TRPV1 agonist activity by intracellular calcium level (FLIPR method); assay type: cell-based; settings: rat dorsal root ganglion primary culture cells
T1 construct: using cultured rat dorsal root ganglion cells which express TRPV1 abundantly; endogenous in cells; host or cells: primary culture of dorsal root ganglion cells from 7 day old Wistar rat
T1 sequence (O35433 whole entry): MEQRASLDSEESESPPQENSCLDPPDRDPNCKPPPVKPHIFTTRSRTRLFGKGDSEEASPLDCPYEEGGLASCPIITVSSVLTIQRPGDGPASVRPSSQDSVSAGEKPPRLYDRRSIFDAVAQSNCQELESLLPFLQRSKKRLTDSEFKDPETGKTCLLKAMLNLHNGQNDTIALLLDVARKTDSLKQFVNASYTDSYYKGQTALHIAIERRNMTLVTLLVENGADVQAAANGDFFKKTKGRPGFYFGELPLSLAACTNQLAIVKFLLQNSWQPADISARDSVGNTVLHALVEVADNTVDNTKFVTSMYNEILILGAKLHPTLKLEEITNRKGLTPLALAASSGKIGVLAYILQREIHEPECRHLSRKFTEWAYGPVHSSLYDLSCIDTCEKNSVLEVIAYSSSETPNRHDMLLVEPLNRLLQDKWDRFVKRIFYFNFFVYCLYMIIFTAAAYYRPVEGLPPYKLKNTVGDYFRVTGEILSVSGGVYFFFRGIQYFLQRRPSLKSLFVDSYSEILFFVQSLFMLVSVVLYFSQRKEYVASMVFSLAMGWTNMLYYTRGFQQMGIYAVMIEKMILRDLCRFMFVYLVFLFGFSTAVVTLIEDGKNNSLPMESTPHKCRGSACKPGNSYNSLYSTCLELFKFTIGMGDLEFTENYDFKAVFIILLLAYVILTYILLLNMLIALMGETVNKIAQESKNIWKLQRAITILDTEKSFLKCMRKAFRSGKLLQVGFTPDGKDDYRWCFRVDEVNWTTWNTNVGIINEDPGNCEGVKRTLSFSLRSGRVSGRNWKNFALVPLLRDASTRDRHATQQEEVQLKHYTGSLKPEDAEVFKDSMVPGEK
Excerpt: The test is to measure the elevation of intracellular calcium level as the indicator of TRPV1 agonist activity of a test compound using cultured rat dorsal root ganglion cells which express TRPV1 abundantly, and carried out in accordance with the method of Jerman et al. (Jerman, J. C. et al., Comparison of effects of anandamide at recombinant and endogenous rat vanilloid receptors. Br J Anaesth, 2002. 89(6): p. 882-7). More specifically, the dorsal root ganglion was removed from a 7 day old Wistar rat, and the cells were isolated by collagenase-trypsin treatment. Subsequently, the primary cells was cultured in a CO2 incubator controlled at 5% CO2 and 37° C. for 2 days. The culture medium used was Neurobasal™ medium supplemented with L-glutamine, nerve growth factor, N-2-Supplement, Penicillin-Streptomycin, 5-Fluoro-2′-deoxyuridine (culture day 1 only) were added to.
FLIPR^TETRA system (Molecular Devices Corp.) was used to measure the intracellular calcium concentration. As an indicator of TRPV1 agonistic activity, the fluorescence intensity elevation was monitored when a test compound is applied to the rat dorsal root ganglion primary culture cells loaded with a calcium-sensitive fluorescent reagent.

[4] = system: mechanical hyperalgesia in a neuropathic pain model (rat Chung model); assay: Analgesic effect in combination with Pregabalin: von Frey filament test using rat Chung model, i.pl. administration; assay type: in vivo; settings: for % to pre-administration value: (1) Test compound post-i. pl. administration value: 50 μl of 0.1% (W/V) solution intraplantar to left hindlimb, measured on the following day, test compound alone; for % to pre-administration value: (2) Pregabalin post-oral administration value (Test compound administered on the day before): test compound i.pl. the day before plus Pregabalin 10 mg/kg orally, combined effect
Method: The study was conducted using the same methods and evaluation criteria as in Test Example 1 with the exception of the administration route of the test compounds (see Test Example 1).
Using the von Frey filaments the test compound pre-administration values (pressure withdrawal threshold) were measured. Subsequently, 50 μl of a solution containing a test compound or vehicle control was intraplantarly injected to the left hindlimb using a microsyringe (intraplantar injection: i. pl. administration), and on the following day the withdrawal threshold was measured (effect of the test compound alone). Thereafter, 10 mg/kg of Pregabalin was orally administered and an hour later the withdrawal threshold was measured (combined effect).
Pregabalin was dissolved in distilled water. Physiological saline containing Tween 80 and ethanol was used as the vehicle control for the i. pl. administration.
The analgesic effect is a relative ratio when a pre-administration value calculated using the following numerical formula is 100%.

[5] = system: eye of a Std: ddy male mouse; assay: Pungency: eye-wiping test; assay type: in vivo; settings: 10 μg/ml, one drop to mouse eye, counted every minute up to 5 minutes
Method: The test is to examine the pungency of the compound of the present invention, and was carried out in accordance with the method by Jancso et al. [Acta. Physiol. Acad. Sci. Hung., 19, 113-131 (1961)] and the method by Szallasi et al. [Brit. J. Pharmacol., 119, 283-290 (1996)]. Specifically, the test compounds were dissolved in physiological saline containing 5% Tween 80 and 5% ethanol to give each (10 or 30 μg/ml) concentration, and one drop of the obtained solution was applied to the eye of a Std: ddy male mouse (5 mice per group, body weight 20 to 30 g) and the number of the protective wiping behavior with the front paws was counted every minute up to 5 minutes after the administration. Then, the average counts in each minute was calculated and the maximum number was defined as the representative value. Further, as vehicle control, the same test was carried out using physiological saline containing 5% Tween 80 and 5% ethanol.

[6] = read-out: Value (%) when fluorescence intensity for capsaicin (1 μM) is 100%, 1 μM
[7] = 1 μM, read-out: Value (%) when fluorescence intensity for capsaicin (1 μM) is 100%

| Compound | % to pre-administration value (withdrawal threshold) [1] [%] | micronucleus inducing potential [2] | Emax at 1 µM [3, 6] [%] | % to pre-administration value: (1) Test compound post-i. pl. administration value [4] [%] | % to pre-administration value: (2) Pregabalin post-oral administration value (Test compound administered on the day before) ([4]; measured an hour later) [%] | Value (%) when fluorescence intensity for capsaicin (1 μM) is 100% ([3]; 1 μM) [%] | other results |
| --- | --- | --- | --- | --- | --- | --- | --- |
| COc1cc(CNC(=O)C2CN(C(=O)O[C@H]3CC[C@@H](C(C)(C)C)CC3)C2)ccc1O [Example 16] | 218 | no micronucleus inducing potential | 84 | 200 | 223 |  |  |
| COc1cc(CNC(=O)C2CCN(C(=O)OC3CCC(C)(C)CC3)CC2)ccc1O [Example 8] | 191 |  |  | 197 | 244 |  | Emax at 1 µM [3, 7]: 96%; melting point: 111 °C |
| CC[C@H]1CC[C@H](OC(=O)N2CCC(C(=O)NCc3ccc(O)c(OC)c3)CC2)CC1 [Example 2] |  | no micronucleus inducing potential | 84 |  |  |  |  |
| COc1cc(CNC(=O)CCCC/C=C/C(C)C)ccc1O [Capsaicin, (E)-8-methyl-N-vanillyl-6-nonenamide, reference compound] | 228 |  |  |  |  | 100 | Representative value of the counts of protective wiping behavior (Maximum counts, counts/min) [5]: 20.0 counts/min; Representative value of the counts of protective wiping behavior (Maximum counts, counts/min) ([5]; listed as capsaicin): vigorous wiping behavior was observed |
| CC(C)C[C@H](CN)CC(=O)O [Pregabalin, reference compound] |  |  |  |  |  |  | % to pre-administration value: (2) Pregabalin post-oral administration value (vehicle control administered on the day before) ([4]; vehicle i.pl. the day before, Pregabalin 10 mg/kg orally, measured an hour later, Pregabalin alone): 125% |
| COc1cc(CNC(=O)C2CCN(C(=O)O[C@H]3CCCC[C@H]3C)CC2)ccc1O [Example 38, (1S,2R)-2-methylcyclohexyl 4-(4-hydroxy-3-methoxybenzylcarbamoyl)-piperidine-1-carboxylate] | 243 |  | 97 |  |  |  |  |
| COc1cc(CNC(=O)C2CCN(C(=O)O[C@H]3CCC[C@H](C)C3)CC2)ccc1O [Example 36, (1S,3S)-3-methylcyclohexyl 4-(4-hydroxy-3-methoxybenzylcarbamoyl)-piperidine-1-carboxylate] | 209 |  |  |  |  | 104 |  |
| COc1cc(CNC(=O)C2CCN(C(=O)O[C@@H]3CCCC[C@@H]3C)CC2)ccc1O [Example 37, (1R,2S)-2-methylcyclohexyl 4-(4-hydroxy-3-methoxybenzylcarbamoyl)-piperidine-1-carboxylate] | 236 | no micronucleus inducing potential |  | 169 | 219 | 101 |  |
| CCC1(CC)CCC(OC(=O)N2CC(C(=O)NCc3ccc(O)c(OC)c3)C2)CC1 [Example 14, 4,4-diethylcyclohexyl 3-(4-hydroxy-3-methoxybenzylcarbamoyl)-azetidine-1-carboxylate] | 241 |  |  |  |  |  | Emax at 1 µM [3, 7]: 78% |
